Tests used:
[1] = Cytotoxicity against human HK-2 cells incubated for 72 hrs by MTT assay; type: toxicity, cell-based
HK-2 [2] = assay: Protection against cisplatin-induced nephrotoxicity in human HK-2 cells assessed as cell viability at 1 uM preincubated with compound for 2 hrs followed by cisplatin induction and measured after 72 hrs by MTT assay (reference value: 37.37 +/- 1.35%); type: functional; conditions: time 74 hrs, read-out: Activity
HK-2 [3] = assay: Protection against cisplatin-induced nephrotoxicity in human HK-2 cells assessed as cell viability at 5 uM preincubated with compound for 2 hrs followed by cisplatin induction and measured after 72 hrs by MTT assay (reference value: 37.37 +/- 1.35%); type: functional; conditions: time 74 hrs, read-out: Activity
HK-2 [4] = assay: Protection against cisplatin-induced nephrotoxicity in human HK-2 cells assessed as cell viability at 10 uM preincubated with compound for 2 hrs followed by cisplatin induction and measured after 72 hrs by MTT assay (reference value: 37.37 +/- 1.35%); type: functional; conditions: time 74 hrs, read-out: Activity

Row | SMILES | IC50 at 72 h [1] [µM] | viability at 1 µM (HK-2 [2]) [%] | viability at 5 µM (HK-2 [3]) [%] | viability at 10 µM (HK-2 [4]) [%]
1 | COc1c2c(c(C(=O)O)c(OC)c1C(=O)c1ccccc1)OC(C)(C)C(C)C2 (stereo not drawn) | > 10 | 37.8 | 28.9 | 32
2 | COc1c(C=O)c(OC)c(C(=O)c2ccccc2)c2c1CC(C)C(C)(C)O2 (stereo not drawn) | > 10 | 26.8 | 30.4 | 43.5
3 | COc1c2c(c(C(=O)O)c(OC)c1C(=O)c1ccccc1)OC1(C)CCCC1C2 (stereo not drawn) | > 10 | 32.3 | 29.6 | 32.6
4 | COc1c(C=O)c(OC)c(C(=O)c2ccccc2)c2c1CC1C[C@@H]3[C@H](CC1(C)O2)C3(C)C (stereo partly drawn) | > 10 | 36.3 | 39.8 | 39
5 | COc1c(CN2CCN(C)CC2)c(OC)c(C(=O)c2ccccc2)c2c1CC1CCCC1(C)O2 (stereo not drawn) | > 10 | 38 | 37.5 | 43.7
6 | COc1c(C=O)c2c(c(OC)c1C(=O)c1ccccc1)CC1C[C@@H]3[C@H](CC1(C)O2)C3(C)C (stereo partly drawn) | > 10 | 30.1 | 30.8 | 35.5
7 | COc1c(C=O)c(OC)c(C(=O)c2ccccc2)c2c1CC1CCCC1(C)O2 (stereo not drawn) | > 10 | 38.2 | 44.9 | 49.4
8 | COc1c(C=O)c2c(c(OC)c1C(=O)c1ccccc1)CC(C)C(C)(C)O2 (stereo not drawn) | > 10 | 37.5 | 43.7 | 46.2
9 | COc1c(CO)c2c(c(OC)c1C(=O)c1ccccc1)CC1C[C@@H]3[C@H](CC1(C)O2)C3(C)C (stereo partly drawn) | 6.42 | – | – | –
10 | COc1c(C=O)c2c(c(OC)c1C(=O)c1ccccc1)CC1CCCCC1(C)O2 (stereo not drawn) | > 10 | 34.1 | 35.2 | 44.9
11 | COc1c(C=O)c(OC)c(C(=O)c2ccccc2)c2c1CC1CCCCC1(C)O2 (stereo not drawn) | > 10 | 35.3 | 34.4 | 30.1
12 | COc1c(CO)c2c(c(OC)c1C(=O)c1ccccc1)CC1CCCC1(C)O2 (stereo not drawn) | > 10 | 34.9 | 37.5 | 45.4
13 | COc1c2c(c(CN3CCN(C)CC3)c(OC)c1C(=O)c1ccccc1)OC(C)(C)C(C)C2 (stereo not drawn) | > 10 | 39.7 | 33 | 38.2
14 | COc1c2c(c(C(=O)O)c(OC)c1C(=O)c1ccccc1)OC1(C)C[C@H]3[C@@H](CC1C2)C3(C)C (stereo partly drawn) | > 10 | 31.5 | 21.6 | 25.4
15 | COc1c(CN2CCN(C)CC2)c(OC)c(C(=O)c2ccccc2)c2c1CC1C[C@@H]3[C@H](CC1(C)O2)C3(C)C (stereo partly drawn) | > 10 | 39.9 | 40.1 | 18.5
16 | COc1c2c(c(CN3CCN(C)CC3)c(OC)c1C(=O)c1ccccc1)OC1(C)CCCCC1C2 (stereo not drawn) | > 10 | 40.2 | 37.1 | 37
17 | CC1Cc2c(O)c(C(=O)c3ccccc3)c(O)c(C=O)c2OC1(C)C (stereo not drawn) | > 10 | 37.7 | 33.2 | 28.1
18 | COc1c2c(c(CN3CCN(C)CC3)c(OC)c1C(=O)c1ccccc1)OC1(C)C[C@H]3[C@@H](CC1C2)C3(C)C (stereo partly drawn) | > 10 | 37.5 | 41.9 | 40.8
19 | CC12CCCC1Cc1c(O)c(C(=O)c3ccccc3)c(O)c(C=O)c1O2 (stereo not drawn) | > 10 | 37.2 | 38.2 | 38.6

Row | SMILES | IC50 at 72 h [1] [µM] | viability at 1 µM (HK-2 [2]) [%] | viability at 5 µM (HK-2 [3]) [%] | viability at 10 µM (HK-2 [4]) [%]
20 | COc1c(CN2CCN(C)CC2)c(OC)c(C(=O)c2ccccc2)c2c1CC1CCCCC1(C)O2 (stereo not drawn) | > 10 | 30.4 | 24.2 | 25.9
21 | COc1c2c(c(CN3CCN(C)CC3)c(OC)c1C(=O)c1ccccc1)OC1(C)CCCC1C2 (stereo not drawn) | > 10 | 36.4 | 39.4 | 38.3
22 | CC12C[C@H]3[C@@H](CC1Cc1c(O)c(C(=O)c4ccccc4)c(O)c(C=O)c1O2)C3(C)C (stereo partly drawn) | 9.31 | – | – | –
23 | CC12C[C@H]3[C@@H](CC1Cc1c(O)c(C=O)c(O)c(C(=O)c4ccccc4)c1O2)C3(C)C (stereo partly drawn) | 7.81 | – | – | –
24 | COc1c2c(c(C(=O)c3ccccc3)c(OC)c1C(=O)O)OC1(C)CCCCC1C2 (stereo not drawn) | > 10 | 38.8 | 35.9 | 25.7
25 | COc1c2c(c(C(=O)O)c(OC)c1C(=O)c1ccccc1)OC1(C)CCCCC1C2 (stereo not drawn) | > 10 | 38.2 | 30.7 | 28
26 | COc1c(CO)c(OC)c(C(=O)c2ccccc2)c2c1CC1CCCCC1(C)O2 (stereo not drawn) | > 10 | 38.8 | 44.3 | 44.6
27 | COc1c2c(c(C(=O)c3ccccc3)c(OC)c1C(=O)O)OC1(C)C[C@H]3[C@@H](CC1C2)C3(C)C (stereo partly drawn) | > 10 | 30.2 | – | 40
28 | COc1c(CO)c(OC)c(C(=O)c2ccccc2)c2c1CC1C[C@@H]3[C@H](CC1(C)O2)C3(C)C (stereo partly drawn) | > 10 | 36 | 43.1 | 59.2
29 | COc1c(CO)c(OC)c(C(=O)c2ccccc2)c2c1CC(C)C(C)(C)O2 (stereo not drawn) | > 10 | 38.3 | 31.4 | 34.2
30 | COc1c(CN2CCN(C)CC2)c(OC)c(C(=O)c2ccccc2)c2c1CC(C)C(C)(C)O2 (stereo not drawn) | > 10 | 37.2 | 39.2 | 38.9
31 | COc1c2c(c(C(=O)c3ccccc3)c(OC)c1C(=O)O)OC1(C)CCCC1C2 (stereo not drawn) | > 10 | 37.2 | 35.2 | 31.8
32 | COc1c2c(c(C(=O)c3ccccc3)c(OC)c1C(=O)O)OC(C)(C)C(C)C2 (stereo not drawn) | > 10 | 33.6 | 30.4 | 33.4
33 | COc1c(CO)c(OC)c(C(=O)c2ccccc2)c2c1CC1CCCC1(C)O2 (stereo not drawn) | > 10 | 35 | 25.9 | 26.5
34 | COc1c(CO)c2c(c(OC)c1C(=O)c1ccccc1)CC1CCCCC1(C)O2 (stereo not drawn) | > 10 | 37.7 | 41.8 | 36.9
35 | CC12CCCCC1Cc1c(O)c(C(=O)c3ccccc3)c(O)c(C=O)c1O2 (stereo not drawn) | > 10 | 34.8 | 39.3 | 38
36 | COc1c(C=O)c2c(c(OC)c1C(=O)c1ccccc1)CC1CCCC1(C)O2 (stereo not drawn) | > 10 | 37.4 | 33.4 | 30.8
37 | CC1Cc2c(O)c(C=O)c(O)c(C(=O)c3ccccc3)c2OC1(C)C (stereo not drawn) | > 10 | 39.9 | 43.6 | 47

From ChEMBL document CHEMBL5550222, “Synthesis and Biological Evaluation of Novel Psidium Meroterpenoid Derivatives against Cisplatin-Induced Acute Kidney Injury” (J Med Chem, 2024)
